The source of these data is ChEMBL document CHEMBL3638844, “Heterocyclic kinase inhibitors” (2014).

Assay [1] has as its target Serine/threonine-protein kinase pim-2 (Homo sapiens, UniProt Q9P1W9). Nature of the assay: ATP Depletion Assay: The activity of PIM2 is measured using a luciferase-luciferin based ATP detection reagent to quantify ATP depletion resulting from kinase-catalyzed phosphoryl transfer to a peptide substrate. Compounds to be tested are dissolved in 100% DMSO and directly distributed into white 384-well plates at 0.5 ul per well. To start the reaction, 10 ul of 10 nM Pim2 kinase and 20 uM BAD peptide (RSRHSSYPAGT-OH) in assay buffer (50 mM HEPES pH 7.5, 5 mM MgCl2, 1 mM DTT, 0.05% BSA) is added into each well. After 15 minutes, 10 ul of 8 uM ATP in assay buffer is added. Final assay concentrations are 5 nM PIM2, 4 uM ATP, 10 uM BAD peptide and 2.5% DMSO. The reaction is performed until approximately 50% of the ATP is depleted, then stopped with the addition of 20 ul KinaseGlo Plus (Promega Corporation) solution. The stopped reaction is incubated for 10 minutes and the remaining ATP detected via luminescence on the Victor2 (Perkin Elmer).

The target in assay [2] is Serine/threonine-protein kinase pim-3 (Homo sapiens, UniProt Q86V86). The assay is described as follows: ATP Depletion Assay: The activity of PIM3 is measured using a luciferase-luciferin based ATP detection reagent to quantify ATP depletion resulting from kinase-catalyzed phosphoryl transfer to a peptide substrate. Compounds to be tested are dissolved in 100% DMSO and directly distributed into white 384-well plates at 0.5 uA per well. To start the reaction, 10 ul of 10 nM Pim3 kinase and 200 uM BAD peptide (RSRHSSYPAGT-OH) in assay buffer (50 mM HEPES pH 7.5, 5 mM MgCl2, 1 mM DTT, 0.05% BSA) is added into each well. After 15 minutes, 10 ul of 80 uM ATP in assay buffer is added. Final assay concentrations are […], 40 uM ATP, 100 uM BAD peptide and 2.5% DMSO. The reaction is performed until approximately 50% of the ATP is depleted, then stopped by the addition of 20 ul KinaseGlo Plus (Promega Corporation) solution. The stopped reaction is incubated for 10 minutes and the remaining ATP detected via luminescence on the Victor2 (Perkin Elmer).

Assay [3] has as its target Serine/threonine-protein kinase pim-1 (Homo sapiens, UniProt P11309). The assay is described as follows: ATP Depletion Assay: The activity of PIM1 is measured using a luciferase-luciferin based ATP detection reagent to quantify ATP depletion resulting from kinase-catalyzed phosphoryl transfer to a peptide substrate. Compounds to be tested are dissolved in 100% DMSO and directly distributed into white 384-well plates at 0.5 uA per well. To start the reaction, 10 ul of 5 nM Pim1 kinase and 80 uM BAD peptide (RSRHSSYPAGT-OH) in assay buffer (50 mM HEPES pH 7.5, 5 mM MgCl2, 1 mM DTT, 0.05% BSA) is added into each well. After 15 minutes, 10 ul of 40 uM ATP in assay buffer is added. Final assay concentrations are 2.5 nM PIM1, 20 uM ATP, 40 uM BAD peptide and 2.5% DMSO. The reaction is performed until approximately 50% of the ATP is depleted, then stopped with the addition of 20 ul KinaseGlo Plus (Promega Corporation) solution. The stopped reaction is incubated for 10 minutes and the remaining ATP detected via luminescence on the Victor2 (Perkin Elmer).

Serine/threonine-protein kinase pim-2, sequence (Q9P1W9 whole entry): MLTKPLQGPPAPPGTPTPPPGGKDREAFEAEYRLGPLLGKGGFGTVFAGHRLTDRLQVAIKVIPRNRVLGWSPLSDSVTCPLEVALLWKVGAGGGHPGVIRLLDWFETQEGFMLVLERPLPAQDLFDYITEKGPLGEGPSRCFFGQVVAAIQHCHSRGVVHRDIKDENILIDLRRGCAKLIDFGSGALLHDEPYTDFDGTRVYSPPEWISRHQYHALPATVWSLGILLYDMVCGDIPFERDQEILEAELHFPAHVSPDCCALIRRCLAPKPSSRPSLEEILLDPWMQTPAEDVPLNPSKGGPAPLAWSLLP
Serine/threonine-protein kinase pim-1, sequence (P11309 whole entry): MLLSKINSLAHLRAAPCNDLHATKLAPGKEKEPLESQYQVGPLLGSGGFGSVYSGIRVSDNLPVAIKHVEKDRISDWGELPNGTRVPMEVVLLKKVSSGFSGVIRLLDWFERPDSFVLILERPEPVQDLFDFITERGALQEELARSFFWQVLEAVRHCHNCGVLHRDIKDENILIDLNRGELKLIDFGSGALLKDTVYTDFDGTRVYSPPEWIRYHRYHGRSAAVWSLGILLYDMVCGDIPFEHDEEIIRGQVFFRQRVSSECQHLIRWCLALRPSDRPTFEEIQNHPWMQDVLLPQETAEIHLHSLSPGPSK

`N[C@H]1C[C@@H](O)CN(c2ccncc2Nc2cccc3ccc(-c4c(F)cccc4F)nc23)C1`: the IC50 in assay [1] worked out at 512 nM; in assay [2] it was 61 nM; in assay [3] it was 589 nM.
With `N[C@H]1C[C@@H](CO)CN(c2ccncc2Nc2cccc3ccc(-c4c(F)cccc4F)nc23)C1`, the IC50 came to 286 nM in assay [1] and 796 nM in assay [3].
